Test results taken from patent publication US20140193827A1 (TEVA PHARMACEUTICAL INDUSTRIES, LTD., priority 2013, published 2014).

Assays:
[1] = test system: GA-primed murine splenocytes; assay: Differentially expressed genes GA vs PG by multiple parametric tests (ANOVA, LIMMA with background subtraction, comparative marker selection SNR and t-test); assay type: cell-based, mouse
Description: The experimental design, data collection, and pre-processing steps have been previously described. […] After 3 days the mice were sacrificed, their splenocytes were isolated, and these splenocytes were mixed with activator solutions for 24 hours. […] Then the RNA was extracted and gene expression characterized by microarray using an Illumine WG-6_V2 chip. Illumina's BeadStudio software was utilized for image processing, quantification of signal intensity per bead, and background signal correction. The microarray data have been deposited in the Gene Expression Omnibus, under accession number GSE40566.
We then corrected for batch variation with ComBat (30) as implemented in the SVA package of R (62). Each microarray's chip designation was supplied a batch label; there were 18 batches in all. The labels for the treatments (i.e. drug product, reference standard . . . ) were added as covariates.
First, we computed the statistical significance of differential expression between treatments using the Analysis of Variance (ANOVA) method for each probe (65), adjusting for multiple hypothesis testing using the Benjamini-Hochberg False Discovery Rate (FDR) correction (66). […] The coefficients for the linear model were tested for significance using a modified t-test (taking into account standard deviation) and the p-values for each probe were adjusted using FDR. […] We applied two separate techniques within this framework; a traditional T-test and a Signal-to-Noise Ratio test (SNR). For each of these two tests, we adjusted the nominal p-values via FDR. For all four tests described, we used an adjusted threshold that was less than or equal to 0.05.

[2] = test system: GA-primed murine splenocytes; assay: Microarray gene expression profiling of GA-primed splenocytes reactivated ex vivo (t-test / 1-way ANOVA vs. Medium or GA-RS); assay type: cell-based, mouse
Source text: All experimental procedures conformed to accepted ethical standards for use of animals in research and were in accordance with Committee for the Care and Use of Experimental Animals guidelines and approved by the Teva Institutional Animal Care and Use Committee. For these experiments, we purchased 8- to 12-week old female (Balb/c×SJL)F1 mice (Harlan, Israel). […] Single cell suspension was prepared. […] Splenocytes (125 μL 10×10^6 SPL cell/mL suspension) were added to the activator solutions and incubated for 24 hours at 37° C. Then, cells were washed, diluted with RNA stabilization solution (RNAlater® solution, Applied Biosystems), and stored at 4° C. […] RNA quality was assessed by the absorbance ratio at 260/280 on and gel electrophoresis (Experion™, Bio-Rad, Hercules, Calif.). […] Microarray hybridization, array scanning, and initial preprocessing were performed by BioRap (Technion, Haifa, Israel). […] The subsequent bioinformatics analyses were conducted in the Bioinformatics Core Facility of the National Institute for Biotechnology in the Negev, Ltd. (NIBN, Beer-Sheva, Israel). Summarization of bead-level data to gene-level signals was performed using the R package “beadarray” (45) after removal of outliers greater than 3 median absolute deviations (MADs). Between-sample quantile normalization was performed using Partek Genomics Suite (Partek, Inc., St. Louis, Missouri), followed by correction of experimental batch effects (i.e., related to differences in dates of RNA extraction and array processing) using the Partek Batch Remover™ tool. […] Fold change values were presented in linear scale. […] RNA was extracted and full gene expression analysis was preformed.

[3] = test system: GA-primed murine splenocytes; assay: Non-parametric Wilcoxon rank sum test GA vs PG; assay type: cell-based, mouse
Source text: Nominal p-values were FDR adjusted and only probes that were less than or equal to 0.05 were considered.

[4] = test system: GA-primed murine splenocytes

Substance: glatiramer acetate [GA]
- FOXP3 expression, GA vs PG [1]: significantly higher expression
- GPR83 expression, GA vs PG [1]: significantly higher levels of expression
- IFNG expression, GA compared to PG ([1]; probes ranked #1 and #3 by fold change): upregulated dramatically
- genes up- or down-regulated compared to medium ([2]; FDR-adjusted p value <0.05, fold change of 1.3 or more): 1474 genes
- FOXP3 expression ([2]; vs. Medium): over-expressed
- Fold Change CD40 ([2]; vs. Medium): 1.533
- Fold Change CD86 ([2]; vs. Medium): 1.365
- Fold Change FOXP3 ([2]; vs. Medium): 1.406
- Fold Change GATA3 ([2]; vs. Medium): 1.877
- Fold Change HLA-DMA ([2]; vs. Medium): 1.534
- Fold Change HLA-DMB ([2]; vs. Medium): 1.398
- Fold Change ICOS ([2]; vs. Medium): 2.164
- Fold Change IFNG ([2]; vs. Medium): 16.847
- Fold Change IFNGR2 ([2]; vs. Medium): −1.333
- Fold Change IL2 ([2]; vs. Medium): 2.074
- Fold Change IL2RA ([2]; vs. Medium): 2.457
- Fold Change IL2RG ([2]; vs. Medium): −1.386
- Fold Change IL4 ([2]; vs. Medium): 4.428
- Fold Change IL4R ([2]; vs. Medium): 1.578
- Fold Change IL6R ([2]; vs. Medium): −1.545
- Fold Change IL10RB ([2]; vs. Medium): −1.323
- Fold Change IL12RB1 ([2]; vs. Medium): 2.270
- Fold Change IL13 ([2]; vs. Medium): 1.330
- Fold Change IL17A ([2]; vs. Medium): 1.451
- Fold Change IL17F ([2]; vs. Medium): 2.365
- Fold Change IL18 ([2]; vs. Medium): −1.383
- Fold Change IL18R1 ([2]; vs. Medium): −1.726
- Fold Change TBX21 ([2]; vs. Medium): 2.654
- Fold Change TGFBR2 ([2]; vs. Medium): −1.436
- Fold Change TNF ([2]; vs. Medium): 1.475
- CD40 expression, GA vs PG [3]: significantly lower expression
- AVG expression CYP2S1 [4]: 6.418
